Read-outs that look alike come from different tables or passages of the source.
What was measured:
[1] = Pharmacokinetics study of KDG-0271 in male CD1 mice (Example 4); assay type: in vivo; details: for F: bioavailability vs 1 mg/kg IV; for AUC(0-inf) / AUC(0-t) / Cmax / Tmax / half-life / concentration at 0.25 h / concentration at 0.5 h / concentration at 1 h / concentration at 2 h / concentration at 4 h / concentration at 8 h / MRT inf: mouse, plasma; for MRT inf: read-out: MRTInf_obs
Method: (§1) A standard PK study of KDG-0271 was performed in male CD1 mice dosed with a single intravenous, oral or intraperitoneal dose of KDG-0271. The parameters of the PK study are described in Table 26. Dosing solutions were freshly made prior to use, and were in the form of a suspension. […] For IV and IP, after collection, plasma samples from the same time point were pooled, and the pooled samples were analyzed by LC/MS/MS.
Sample preparation and analysis were conducted in accordance with the method described in Example 3.
(§2) BLOQ=Below quantifiable limit of 1 ng/mL. PK parameters were estimated by non-compartmental model using WinNonlin 6.1. The PO bioavailability (F %) was calculated as following:
(§3) AUClast-PO/AUCINF-PO>80%: F=(AUCINF-PO*DoseIV)/(mean AUCINF-IV*DosePO) AUClast-PO/AUCINF-PO≤80% or AUCINF was not available: F=(AUClast-PO*DoseIV)/(mean AUClast-IV*DosePO).
(§4) The IP bioavailability (F %) was calculated as following:
(§5) AUClast-IP/AUCINF-IP>80%: F=(AUCINF-IP*DoseIV)/(mean AUCINF-IV*DoseIP) AUClast-IP/AUCINF-IP≤80% or AUCINF was not available: F=(AUClast-IP*DoseIV)/(mean AUClast-IV*DoseIP).

[2] = Pharmacokinetics study of KDG-0388 in male CD1 mice (Example 2); assay type: in vivo; details: for F: bioavailability vs 1 mg/kg IV; for MRT inf: read-out: MRTInf_obs
Method: as §1, with “KDG-0388” for “KDG-0271”, “single” for “single intravenous,”, “KDG-0388.” for “KDG-0271.”, “10.” for “26.”
The desired serial concentrations of working solutions were achieved by diluting stock solution of analyte with 50% acetonitrile in water solution. 5 μL of working solutions (2, 4, 10, 20, 100, 400, 2000, 4000 ng/mL) were added to 10 μL of blank CD1 mouse plasma to achieve calibration standards of 1-2000 ng/mL (1, 2, 5, 10, 50, 200, 1000, 2000 ng/mL) in a total volume of 15 μL. Five quality control (QC) samples at 2 ng/mL, 5 ng/mL, 50 ng/mL, 800 ng/mL and 1600 ng/mL for plasma were prepared independently of those used for the calibration curves. These QC samples were prepared on the day of analysis in the same way as calibration standards.
15 μL standards, 15 μL QC samples and 15 μL unknown samples (10 μL plasma with 5 μL blank solution) were added to 200 μL of acetonitrile containing IS mixture for precipitating protein. Then, the samples were vortexed for 30 seconds. After centrifugation at 4 degrees Celsius, 4000 rpm for 15 minutes, the supernatant was diluted three times with water. 25 μL of diluted supernatant was injected into the LC/MS/MS system for quantitative analysis.
as §2, §3, §4, §5

[3] = 30 mg/kg IP, read-out: Concentration IP_Mean
[4] = 50 mg/kg PO, read-out: Concentration PO_Mean
[5] = male, mouse, plasma, CD1 mice, 1 mg/kg IV
[6] = male, mouse, CD1 mice, plasma, 1 mg/kg IV, read-out: Concentration IV_Mean
[7] = mouse, plasma, male CD1 mice, 200 mg/kg IP
[8] = mouse, plasma, male CD1 mice, 200 mg/kg PO
[9] = mouse, male CD1 mice, plasma, 200 mg/kg IP, read-out: Concentration IP_Mean
[10] = mouse, male CD1 mice, plasma, 200 mg/kg PO, read-out: Concentration PO_Mean

## Cc1n[nH]c2c1C(c1cc(C#CC3CN(C(=O)OC(C)(C)C)C3)cc(CO)c1)(C(C)C)C(C#N)=C(N)O2 (stereo not shown) [KDG-0271, tert-butyl 3-[2-(3-[6-amino-5-cyano-4-isopropyl-3-methyl-1H-pyrano[2,3-c]pyrazol-4-yl]-5-(hydroxymethyl)phenyl)ethynyl]azetidine-1-carboxylate]
[1]; 30 mg/kg IP
  AUC_%Extrap_obs: 2.65%
  AUClast/D: 174 kg·ng·h/mL/mg
  F: 179%
  AUC(0-inf): 5360 ng·h/mL
  AUC(0-t): 5220 ng·h/mL
  Cmax: 3170 ng/mL
  Tmax: 0.25 h
  half-life: 1.6 h
  MRT inf: 1.98 h
[1]; 50 mg/kg PO
  AUC_%Extrap_obs: 0.172%
  AUClast/D: 38.1 kg·ng·h/mL/mg
  F: 38.1%
  AUC(0-inf): 1910 ng·h/mL
  AUC(0-t): 1900 ng·h/mL
  Cmax: 872 ng/mL
  Tmax: 0.5 h
  half-life: 0.851 h
  MRT inf: 1.49 h
[1]; [3]
  concentration at 0.25 h: 3170 ng/mL
  concentration at 0.5 h: 2420 ng/mL
  concentration at 1 h: 1580 ng/mL
  concentration at 2 h: 841 ng/mL
  concentration at 4 h: 317 ng/mL
  concentration at 8 h: 61.4 ng/mL
[1]; [4]
  concentration at 0.25 h: 750 ng/mL
  concentration at 0.5 h: 872 ng/mL
  concentration at 1 h: 857 ng/mL
  concentration at 2 h: 350 ng/mL
  concentration at 4 h: 72 ng/mL
  concentration at 8 h: 2.67 ng/mL
[1]; single dose 1 mg/kg IV, 50 mg/kg PO or 30 mg/kg IP, entire experiment
  clinical symptoms: No abnormal clinical symptoms were observed

## Cc1n[nH]c2c1C(c1cc(C#C[C@H]3C[C@@H](NC(=O)OC(C)(C)C)C3)cc(CO)c1)(C(C)C)C(C#N)=C(N)O2 (stereo partly shown) [KDG-0388, tert-butyl N-[(1s,3s)-3-[2-(3-[6-amino-5-cyano-4-isopropyl-3-methyl-1H-pyrano[2,3-c]pyrazol-4-yl]-5-(hydroxymethyl)phenyl)ethynyl]cyclobutyl]carbamate]
[2]; CD1 mice, 1 mg/kg IV
  AUC_%Extrap_obs: 3.44%
  AUClast/D: 76.6 kg·ng·h/mL/mg
  Cl_obs: 210 mL/min/kg
  Vss_obs: 8.80 L/kg
[2]; CD1 mice, plasma, 1 mg/kg IV, 8 h
  Concentration IV_Mean: BLOQ
[2]; male CD1 mice, 200 mg/kg IP
  AUC_%Extrap_obs: 6.08%
  AUClast/D: 136 kg·ng·h/mL/mg
  F: 183%
[2]; male CD1 mice, 200 mg/kg PO
  AUC_%Extrap_obs: 0.218%
  AUClast/D: 16.9 kg·ng·h/mL/mg
  F: 21.4%
[2]; male CD1 mice, plasma, 200 mg/kg PO, 24 h
  Concentration PO_Mean: BLOQ
[2]; male CD1 mice, single dose 200 mg/kg PO or 200 mg/kg IP, entire experiment
  clinical symptoms: No abnormal clinical symptoms were observed
[2]; [5]
  AUC(0-inf): 79.3 ng·h/mL
  AUC(0-t): 76.6 ng·h/mL
  C0: 325 ng/mL
  half-life: 1.11 h
  MRT inf: 0.698 h
[2]; male, mouse, CD1 mice, plasma, 1 mg/kg IV, 0.083 h, read-out: Concentration IV_Mean
  concentration at 0.083 h: 186 ng/mL
[2]; [6]
  concentration at 0.25 h: 60.6 ng/mL
  concentration at 0.5 h: 24.9 ng/mL
  concentration at 1 h: 11.8 ng/mL
  concentration at 2 h: 4.86 ng/mL
  concentration at 4 h: 1.71 ng/mL
[2]; [7]
  AUC(0-inf): 29000 ng·h/mL
  AUC(0-t): 27200 ng·h/mL
  Cmax: 7520 ng/mL
  Tmax: 0.25 h
  half-life: 7.88 h
  MRT inf: 6.33 h
[2]; [8]
  AUC(0-inf): 3400 ng·h/mL
  AUC(0-t): 3390 ng·h/mL
  Cmax: 719 ng/mL
  Tmax: 2 h
  half-life: 1.69 h
  MRT inf: 3.53 h
[2]; [9]
  concentration at 0.25 h: 7520 ng/mL
  concentration at 0.5 h: 6170 ng/mL
  concentration at 1 h: 5460 ng/mL
  concentration at 2 h: 3910 ng/mL
  concentration at 4 h: 2230 ng/mL
  concentration at 16 h: 247 ng/mL
[2]; mouse, male CD1 mice, plasma, 200 mg/kg IP, 8 h, read-out: Concentration IP_Mean
  concentration at 8 h: 633 ng/mL
[2]; mouse, male CD1 mice, plasma, 200 mg/kg IP, 24 h, read-out: Concentration IP_Mean
  concentration at 24 h: 155 ng/mL
[2]; [10]
  concentration at 0.25 h: 215 ng/mL
  concentration at 0.5 h: 347 ng/mL
  concentration at 1 h: 475 ng/mL
  concentration at 2 h: 719 ng/mL
  concentration at 4 h: 417 ng/mL
  concentration at 16 h: 3.04 ng/mL
[2]; mouse, male CD1 mice, plasma, 200 mg/kg PO, 8 h, read-out: Concentration PO_Mean
  concentration at 8 h: 84.3 ng/mL

Source: patent US20230382920A1, “SHMT Inhibitors” (The Trustees of Princeton University, priority 2020, published 2023)
